Marks after values point to notes of the source that are not given here.
Columns and labels:
[1] = test system: Puccinia recondita f. sp. tritici; experiment: Test H: wheat leaf rust, curative spray on inoculated wheat seedlings, visual disease rating; settings: wheat leaf rust, curative spray; for Test H rating (% disease control): 100 = 100% disease control, 0 = no control; for Test H rating (% disease control), value marked *: rating marked with asterisk (different test condition, key not given)
Septoria nodorum = experiment: Test F: Septoria glume blotch, preventive spray on wheat seedlings, visual disease rating; settings: preventive spray; for Test F rating (% disease control): Septoria glume blotch on wheat, 100 = 100% disease control, 0 = no control; for Test F rating (% disease control), value marked *: Septoria glume blotch, rating marked with asterisk (different test condition, key not given)
[2] = test system: Puccinia recondita f. sp. tritici; experiment: Test I: wheat leaf rust, preventive spray on wheat seedlings, visual disease rating; settings: wheat leaf rust, preventive spray; for Test I rating (% disease control): 100 = 100% disease control, 0 = no control; for Test I rating (% disease control), value marked *: rating marked with asterisk (different test condition, key not given)
Septoria tritici = experiment: Test G: wheat leaf blotch, preventive spray on wheat seedlings, visual disease rating; settings: wheat leaf blotch, preventive spray; for Test G rating (% disease control): 100 = 100% disease control, 0 = no control; for Test G rating (% disease control), value marked *: rating marked with asterisk (different test condition, key not given)
Botrytis cinerea = experiment: Test B: tomato Botrytis, preventive spray on tomato seedlings, visual disease rating; settings: tomato Botrytis, preventive spray; for Test B rating (% disease control): 100 = 100% disease control, 0 = no control; for Test B rating (% disease control), value marked *: rating marked with asterisk (different test condition, key not given)
Alternaria solani = experiment: Test C: tomato early blight, preventive spray on tomato seedlings, visual disease rating; settings: tomato early blight, preventive spray; for Test C rating (% disease control): 100 = 100% disease control, 0 = no control; for Test C rating (% disease control), value marked *: rating marked with asterisk (different test condition, key not given)
[3] = test system: Erysiphe graminis f sp. tritici; experiment: Test J: wheat powdery mildew, preventive spray on wheat seedlings, visual disease rating; settings: wheat powdery mildew, preventive spray; for Test J rating (% disease control): 100 = 100% disease control, 0 = no control; for Test J rating (% disease control), value marked *: rating marked with asterisk (different test condition, key not given)

SMILES	Test H rating (% disease control) [1] [%]	Test F rating (% disease control) (Septoria nodorum) [%]	Test I rating (% disease control) [2] [%]	Test G rating (% disease control) (Septoria tritici) [%]	Test B rating (% disease control) (Botrytis cinerea) [%]	Test C rating (% disease control) (Alternaria solani) [%]	Test J rating (% disease control) [3] [%]	Test H rating (% disease control), value marked * [1]	Test F rating (% disease control), value marked * (Septoria nodorum)	Test I rating (% disease control), value marked * [2]	Test G rating (% disease control), value marked * (Septoria tritici)	Test B rating (% disease control), value marked * (Botrytis cinerea)	Test C rating (% disease control), value marked * (Alternaria solani)	Test J rating (% disease control), value marked * [3]
Cc1nn(C)c(Oc2ccc([N+](=O)[O-])cc2F)c1-c1ccc(F)cc1Cl [compound 20]	79	100	100	100	100	99	99							
COc1cc(F)c(Nc2c(-c3cccc(Cl)c3)c(C)nn2C)c(F)c1 [compound 25]	0	0	94	100	100	0	79							
Cc1nn(C)c(Oc2ccc([N+](=O)[O-])cc2)c1-c1c(F)cc(F)cc1F [compound 26]	0	0	99	100	99	83	100							
Cc1nn(C)c(Oc2ccc(Cl)cc2)c1-c1c(F)cc(F)cc1F [compound 27]	0	0	25	95	99	88	87							
Cc1nn(C)c(Nc2c(F)cc(F)cc2F)c1-c1ccc(Cl)cc1 [compound 28]	7	0	91	96	99	0	0							
COc1cc(F)c(Nc2c(-c3ccc(Cl)cc3)c(C)nn2C)c(F)c1 [compound 29]	0	0	46	98	94	0	0							
Cc1nn(C)c(Oc2c(Cl)cc(C(F)(F)F)cc2Cl)c1-c1c(F)cc(F)cc1F [compound 30]	0	0	79	41	7	0	0							
Cc1nn(C)c(Oc2c(F)cc(C#N)cc2F)c1-c1c(F)cc(F)cc1F [compound 31]								15* %	0* %	79* %	47* %	99* %	98* %	60* %
Cc1nn(C)c(Oc2ccc([N+](=O)[O-])cc2Cl)c1-c1c(F)cc(F)cc1F [compound 32]	0	0	99	96	99	0	97							
Cc1nn(C)c(Nc2c(F)cccc2F)c1-c1ccc(Cl)cc1 [compound 33]	0	0	18	95	0	0	0							
COc1cc(F)c(-c2c(C)nn(C)c2Nc2ccc(Cl)nc2)c(F)c1 [compound 34]								0* %	0* %	76* %	96* %	100* %	97* %	0* %
Cc1nn(C)c(Nc2c(F)cc(F)cc2F)c1-c1ccc(F)c(F)c1 [compound 35]	0	0	97	95	100	0	100							
Cc1nn(C)c(Oc2ccc(Cl)cc2Cl)c1-c1c(F)cc(F)cc1F [compound 38]	0	0	99	97	99	9	99							
Cc1nn(C)c(Oc2ccc(Cl)cn2)c1-c1c(F)cc(F)cc1F [compound 39]	99	0	99	99	100	99	99							
COc1cc(F)c(-c2c(C)nn(C)c2Oc2ccc(Cl)cc2Cl)c(F)c1 [compound 40]	92	0	99	94	99	0	99							
COc1cc(F)c(Nc2c(-c3ccc(F)cc3F)c(C)nn2C)c(F)c1 [compound 42]	0	0	94	93	100	0	82							
Cc1nn(C)c(Oc2c(F)cc(C#N)cc2F)c1-c1cccc(F)c1 [compound 43]	66	0	82	97	76	0	99							
Cc1nn(C)c(Oc2c(F)cc(C#N)cc2F)c1-c1ccc(Cl)cc1 [compound 44]	7	0	9	96	82	0	0							
COc1ccc(-c2c(C)nn(C)c2Oc2c(F)cc(C#N)cc2F)c(F)c1 [compound 46]	37	99	100	100	99	100	99							
COc1cc(F)c(-c2c(C)nn(C)c2Oc2ccc(Cl)cn2)c(F)c1 [compound 47]								37* %	0* %	96* %	99* %	100* %	87* %	99* %
COc1cc(F)c(-c2c(C)nn(C)c2Nc2ccc(F)c(F)c2)c(F)c1 [compound 48]	0	0	98	99	100	78	98							
COc1cc(F)c(-c2c(C)nn(C)c2Nc2ccc(Cl)c(F)c2)c(F)c1 [compound 49]	0	35	89	99	100	17	79							
COc1cc(F)c(-c2c(C)nn(C)c2Nc2ccc(C)cc2)c(F)c1 [compound 50]	0	0	98	100	99	57	99							
COc1cc(F)c(-c2c(C)nn(C)c2Nc2ccc(OC)cc2OC)c(F)c1 [compound 51]	0	0	89	100	100	0	78							

Reference: patent publication US10448639B2, “Fungicidal pyrazoles” (FMC CORPORATION, priority 2009, dated 2019)
